{"source": "paper PMC5470982", "about": "“Thymoquinone exerts potent growth-suppressive activity on leukemia through DNA hypermethylation reversal in leukemia cells” (Oncotarget, 2017)", "target": "T1, M. SssI (Spiroplasma monobiae, UniProt P15840)", "T1 construct": "gene sssIM", "T1 sequence (P15840 whole entry, looked up)": "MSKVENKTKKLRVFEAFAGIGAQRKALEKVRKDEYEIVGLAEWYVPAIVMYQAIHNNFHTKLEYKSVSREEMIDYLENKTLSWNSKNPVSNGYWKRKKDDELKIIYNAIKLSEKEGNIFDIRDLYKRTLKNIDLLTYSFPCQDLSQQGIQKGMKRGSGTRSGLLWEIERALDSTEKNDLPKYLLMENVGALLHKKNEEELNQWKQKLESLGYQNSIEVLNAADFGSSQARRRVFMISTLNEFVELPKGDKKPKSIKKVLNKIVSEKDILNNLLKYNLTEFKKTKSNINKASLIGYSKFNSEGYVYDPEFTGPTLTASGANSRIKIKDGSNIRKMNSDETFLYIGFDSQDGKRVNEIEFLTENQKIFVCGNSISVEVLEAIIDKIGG", "experiment": "in vitro DNA methylation assay with biotin/digoxigenin-labelled ds-oligonucleotide, HpaII cleavage and fluorescence readout", "assay_type": "biochemical", "data": [{"compound": "CC1=CC(=O)C(C(C)C)=CC1=O", "note": "[TQ, thymoquinone]", "values": [{"measurement": "IC50", "value": 30, "unit": "nM"}]}]}
